In US20050096370A1, “Method for inhibiting tumor angiogenesis and tumor growth” (Bizbiotech Co., Ltd., priority 2003, published 2005):

Test system: Hep3B hepatoma tumors
Test: histology and immunohistochemistry (H&E, CD31, HIF-1α) of Hep3B xenograft tumors
Format: in vivo, nude mice
Conditions: 30 μg/g daily i.p. 2 weeks
Protocol: FIG. 7 is a picture showing histopathology for Hep3B hepatoma tumors grown in nude mice. Male nude mice were injected subcutaneously in the flank with 5×10^6 viable Hep3B cells. […] After the last treatment, the mice were euthanized, the tumors removed, fixed with formalin, and embedded in paraffin. Tumor sections were cut from the paraffin blocks and stained with hernatoxylin and eosin. v, vessel; a, acinus. Scale bar=50 μm.
FIG. 8 is a picture showing vascular distribution in Hep3B hepatoma tumors grown in nude mice. Male nude mice were injected subcutaneously in the flank with 5×10^6 viable Hep3B cells. […] After the last treatment, the mice were euthanized, the tumors removed, fixed with formalin, and embedded in paraffin. Tumor sections were cut from the paraffin blocks and processed for immunohistochemical staining to detect endothelial cells with an anti-CD31 antibody. The immunostained sections were developed using the avidinbiotin-horseradish peroxidase method with diaminobenzidine as the chromagen. The sections were lightly counterstained with hematoxylin. Arrows indicate CD31-positive vessels. Scale bar=50 μm.
FIG. 9 is a picture showing expression and distribution of HIF-1α in Hep3B hepatoma tumors grown in nude mice. Male nude mice were injected subcutaneously in the flank with 5×10^6 viable Hep3B cells. […] After the last treatment, the mice were euthanized, the tumors removed, fixed with formalin, and embedded in paraffin. Tumor sections were cut from the paraffin blocks and processed for immunohistochemical staining to detect HIF-1α with an anti-HIF-1α antibody. The immunostained sections were developed using the avidin-biotin-horseradish peroxidase method with diaminobenzidine as the chromagen. The sections were lightly counterstained with hematoxylin. Arrows indicate HIF-1α positive cells. nu, nuclear staining; pn, perinuclear staining. Scale bar=50 μm. […]
Because HIF-1 is important in angiogenesis, we next assessed HIF-1α expression in tumor sections from vehicle- and YC-1-treated mice (FIG. 9).

## OCc1ccc(-c2nn(Cc3ccccc3)c3ccccc23)o1 [YC-1, 3-(5′-hydroxymethyl-2′-furyl)-1-benzylindazole]
  CD31-immunopositive vessels in tumor sections: Few CD31-immunopositive vessels
  HIF-1α immunoreactive cells in tumor sections: no HIF-1α inimunoreactive cells
  hematoxylin-eosin histology of tumor sections: frequent acinus formation without well-developed blood vessels
